Source: article PMC12749748, “Chemically-induced degradation of the endoplasmic-reticulum stress sensor IRE1 by a VHL-recruiting chimera” (Nature Communications, 2025)

How the values were obtained:
Assay type in all cases: cell-based
[1] = target: T1, IRE1 (Homo sapiens, UniProt O75460); test: Immunoblot of endogenous IRE1 depletion in KMS27 cells; parameters: Immunoblot (IB) analysis of endogenous IRE1 depletion in AMO1 cells; endogenous in cells; host or cells: AMO1, KMS27, H929
Method: (§1) Cells were lysed in buffer containing 20 mM HEPES 7.2, 150 mM NaCl, and 1% Triton X-100, supplemented with fresh protease and phosphatase inhibitors (Invitrogen, #78440), cleared by centrifugation at 12,000 × g for 10 min, and analyzed by BCA protein assay (Thermo Fisher Scientific, #23227). Equal protein amounts were loaded, separated by SDS-PAGE, electrotransferred to nitrocellulose membranes using the iBLOT2 system (Invitrogen), and blocked in 5% nonfat milk solution for 60 min. Membranes were probed with primary antibodies at 1:1000 dilution in 5% milk at 4 °C overnight. Signal was detected using appropriate horseradish peroxidase (HRP)-conjugated secondary antibodies at 1:10,000 in 5% milk at room temperature for 1–2 h. Bands were visualized by the Azure 600 western blot imaging system (Azure Biosystems). For in vitro ubiquitination assays performed with Me-Ub, bands were visualized by the Odyssey CLx Imager (LI‑COR) after incubating the blots with the IRDye 800CW (LI-COR) secondary antibodies at 1:10,000 in Intercept Blocking Buffer (LI-COR) at room temperature for 1–2 h.

[2] = target: T2, MELK (Homo sapiens, UniProt Q14680); test: Immunoblot of MELK depletion in AMO1 cells; settings: additional replicates
T2 construct: endogenous in cells; host or cells: AMO1
Method: Cells were lysed in buffer containing 20 mM HEPES 7.2, 150 mM NaCl, and 1% Triton X-100, supplemented with fresh protease and phosphatase inhibitors (Invitrogen, #78440), cleared by centrifugation at 12,000 × g for 10 min, and analyzed by BCA protein assay (Thermo Fisher Scientific, #23227). Equal protein amounts were loaded, separated by SDS-PAGE, electrotransferred to nitrocellulose membranes using the iBLOT2 system (Invitrogen), and blocked in 5% nonfat milk solution for 60 min. Membranes were probed with primary antibodies at 1:1000 dilution in 5% milk at 4 °C overnight. Signal was detected using appropriate horseradish peroxidase (HRP)-conjugated secondary antibodies at 1:10,000 in 5% milk at room temperature for 1–2 h. Bands were visualized by the Azure 600 western blot imaging system (Azure Biosystems). For in vitro ubiquitination assays performed with Me-Ub, bands were visualized by the Odyssey CLx Imager (LI‑COR) after incubating the blots with the IRDye 800CW (LI-COR) secondary antibodies at 1:10,000 in Intercept Blocking Buffer (LI-COR) at room temperature for 1–2 h. […]
The kinome selectivity of G6374 was assessed at 1 μM for 1 h versus a panel of 220 human kinases (SelectScreen Kinase Profiling Services, Thermo Fisher Scientific). […]

[3] = target: T3, IRE1 H579A (Homo sapiens, UniProt O75460+P40337, H579A); test: NanoLuc signal IRE1 depletion, IRE1 H579A, HEK293T cells; settings: HEK-293T
T3 construct: N2731; host or cells: HEK293T
Method: 8 × 10^5 293T cells per well were seeded in 6-well plates (Costar, #3516) and incubated at 37 °C, 5% CO2 for 6 h. A mixture of 0.2 µg ERN1 (IRE1)-NanoLuc Fusion Vector (Promega, NV1321), 2 µg HaloTag-VHL Fusion Vector (Promega, N2731), 6 µl FuGENE HD Transfection Reagent (Promega, E2311), and 100 µL Opti-MEM I reduced serum medium (Gibco, #31985062) per well was incubated at room temperature for 20 min before adding to cells. For expression of IRE1 mutants, site-directed mutagenesis was performed using the ERN1-NanoLuc Fusion Vector as the DNA template, and the transfection mixture was prepared in the same way as WT IRE1. After 18 h, cells from 6-well plates were trypsinized, resuspended in Opti-MEM I reduced serum medium, and reseeded into 96-well plates (Costar, #3917), with or without the addition of HaloTag NanoBRET 618 Ligand (Promega, G9801). After 18 h of incubation, a titration of G6374 (dilutions made in Opti-MEM I reduced serum medium) was added to the cells. After 2 h of G6374 treatment, NanoBRET Nano-Glo Substrate (Promega, N1571) was added to cells. The 96-well plates were imaged by GloMax Discover Microplate Reader (Promega, GM3000) with the default “BRET: NanoBRET 618” protocol (Donor: 450 BP; Acceptor: 600 LP; Integration: 0.3 s). Data analysis was performed according to the user manual.

[4] = target: T1, IRE1; test: IP-IB of K48-linked ubiquitination of endogenous IRE1 in AMO1 cells; parameters: Immunoblot (IB) analysis of endogenous IRE1 depletion in AMO1 cells; endogenous in cells; host or cells: AMO1; settings: 3 µM, 2 h, compared to DMSO
Method: as §1
IRE1.LD antibodies were conjugated to agarose beads using the AminoLink® Plus Immobilization Kit (Thermo Fisher, #44894). […]

T1 sequence (O75460 19-977): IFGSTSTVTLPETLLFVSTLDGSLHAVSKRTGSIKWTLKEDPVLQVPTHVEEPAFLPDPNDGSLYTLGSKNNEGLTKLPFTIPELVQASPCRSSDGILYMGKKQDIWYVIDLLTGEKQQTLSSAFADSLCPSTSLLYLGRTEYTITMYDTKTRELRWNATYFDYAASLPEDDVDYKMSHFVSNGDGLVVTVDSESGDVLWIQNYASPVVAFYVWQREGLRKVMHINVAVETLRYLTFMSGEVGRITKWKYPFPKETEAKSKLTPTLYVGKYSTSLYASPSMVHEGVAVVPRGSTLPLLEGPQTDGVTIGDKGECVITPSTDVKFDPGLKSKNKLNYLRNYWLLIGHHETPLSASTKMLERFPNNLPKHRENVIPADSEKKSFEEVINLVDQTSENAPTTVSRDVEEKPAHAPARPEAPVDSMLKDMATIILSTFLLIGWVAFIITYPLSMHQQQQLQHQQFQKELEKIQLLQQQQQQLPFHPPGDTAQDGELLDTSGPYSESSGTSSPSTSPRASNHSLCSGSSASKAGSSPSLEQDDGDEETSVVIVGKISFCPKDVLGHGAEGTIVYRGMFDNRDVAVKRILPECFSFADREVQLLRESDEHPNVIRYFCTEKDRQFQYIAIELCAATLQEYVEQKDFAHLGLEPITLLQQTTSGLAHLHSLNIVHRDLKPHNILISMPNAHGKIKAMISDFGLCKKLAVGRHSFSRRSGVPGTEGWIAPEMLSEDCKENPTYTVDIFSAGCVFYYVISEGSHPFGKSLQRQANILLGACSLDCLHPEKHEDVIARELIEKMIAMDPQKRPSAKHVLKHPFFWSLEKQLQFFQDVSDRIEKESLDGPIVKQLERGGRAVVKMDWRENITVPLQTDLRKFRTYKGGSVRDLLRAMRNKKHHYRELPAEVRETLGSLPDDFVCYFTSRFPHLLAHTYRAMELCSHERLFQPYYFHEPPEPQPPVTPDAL
T2 sequence (Q14680 whole entry): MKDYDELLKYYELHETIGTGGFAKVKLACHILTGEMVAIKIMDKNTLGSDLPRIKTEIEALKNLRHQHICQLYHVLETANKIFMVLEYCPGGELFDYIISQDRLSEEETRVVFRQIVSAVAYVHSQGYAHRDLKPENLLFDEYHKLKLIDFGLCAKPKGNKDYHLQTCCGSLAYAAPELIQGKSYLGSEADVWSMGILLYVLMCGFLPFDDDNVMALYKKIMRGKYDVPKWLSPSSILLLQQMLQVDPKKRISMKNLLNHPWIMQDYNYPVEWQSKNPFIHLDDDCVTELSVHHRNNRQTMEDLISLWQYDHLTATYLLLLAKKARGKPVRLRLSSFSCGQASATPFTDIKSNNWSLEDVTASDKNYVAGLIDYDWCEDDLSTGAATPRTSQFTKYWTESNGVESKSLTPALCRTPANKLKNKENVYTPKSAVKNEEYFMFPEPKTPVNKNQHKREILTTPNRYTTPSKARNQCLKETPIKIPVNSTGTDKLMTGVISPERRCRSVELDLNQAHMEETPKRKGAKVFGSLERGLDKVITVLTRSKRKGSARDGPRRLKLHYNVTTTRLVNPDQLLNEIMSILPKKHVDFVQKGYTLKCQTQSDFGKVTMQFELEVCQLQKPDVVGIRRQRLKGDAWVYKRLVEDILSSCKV
T3 sequence (O75460 19-977 H579A): as the sequence (O75460 19-977) above, with H561A counted along it
T3 sequence (P40337 whole entry): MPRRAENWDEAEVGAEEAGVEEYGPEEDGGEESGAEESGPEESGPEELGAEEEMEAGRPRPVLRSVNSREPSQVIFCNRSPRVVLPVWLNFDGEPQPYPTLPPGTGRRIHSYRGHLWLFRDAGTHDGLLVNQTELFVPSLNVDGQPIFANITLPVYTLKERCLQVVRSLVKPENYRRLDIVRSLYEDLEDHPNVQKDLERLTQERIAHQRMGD
T3 sequence (Q15369 whole entry partner): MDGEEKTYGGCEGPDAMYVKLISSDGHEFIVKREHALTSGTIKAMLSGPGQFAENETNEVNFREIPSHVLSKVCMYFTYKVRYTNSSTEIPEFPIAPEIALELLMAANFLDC
T3 sequence (Q15370 whole entry partner): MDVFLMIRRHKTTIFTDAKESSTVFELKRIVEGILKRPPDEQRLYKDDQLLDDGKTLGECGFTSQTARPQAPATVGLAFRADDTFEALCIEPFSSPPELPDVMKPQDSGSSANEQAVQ
T3 sequence (Q13617 whole entry partner): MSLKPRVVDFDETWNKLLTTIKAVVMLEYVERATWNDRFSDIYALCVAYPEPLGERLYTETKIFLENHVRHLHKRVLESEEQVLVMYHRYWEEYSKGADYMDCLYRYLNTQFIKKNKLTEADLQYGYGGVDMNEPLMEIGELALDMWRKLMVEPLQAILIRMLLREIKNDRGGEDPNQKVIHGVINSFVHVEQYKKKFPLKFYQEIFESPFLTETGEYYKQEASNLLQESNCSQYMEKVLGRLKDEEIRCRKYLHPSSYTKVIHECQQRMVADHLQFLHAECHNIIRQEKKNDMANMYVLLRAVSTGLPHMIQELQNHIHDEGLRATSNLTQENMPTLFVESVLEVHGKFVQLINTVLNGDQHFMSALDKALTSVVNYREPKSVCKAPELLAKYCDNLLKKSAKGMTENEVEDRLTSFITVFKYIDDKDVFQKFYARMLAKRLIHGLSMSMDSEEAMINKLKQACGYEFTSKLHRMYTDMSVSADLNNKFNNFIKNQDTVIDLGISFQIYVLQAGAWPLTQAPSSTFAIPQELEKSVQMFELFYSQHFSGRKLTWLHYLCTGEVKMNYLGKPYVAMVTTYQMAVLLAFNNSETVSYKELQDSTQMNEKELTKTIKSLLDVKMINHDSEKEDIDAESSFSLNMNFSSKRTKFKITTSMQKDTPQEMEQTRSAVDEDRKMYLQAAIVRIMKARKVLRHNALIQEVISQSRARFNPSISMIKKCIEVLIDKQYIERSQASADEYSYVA
T3 sequence (P62877 whole entry partner): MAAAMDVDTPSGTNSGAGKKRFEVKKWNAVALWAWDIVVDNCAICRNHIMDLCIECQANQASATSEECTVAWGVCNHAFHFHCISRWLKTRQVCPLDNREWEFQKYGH

Question: `Cc1ncsc1-c1ccc(CNC(=O)[C@@H]2C[C@@H](O)CN2C(=O)[C@@H](NC(=O)CCCCN2CCN([C@H]3CC[C@H](Nc4ncc5ccc(=O)n(C(C)C)c5n4)CC3)CC2)C(C)(C)C)cc1` [G6374] was tested. Which Dmax ([1]; KMS-27, immunoblot quantification) did it give?
Answer: 98%

Question: And the DC50 ([1]; immunoblot quantification)?
Answer: 130 nM

Question: What about the “depletion of MELK” value [2] of the same compound?
Answer: MELK is not depleted

Question: And the Dmax [3]?
Answer: 27%

Question: What about the “K48-linked ubiquitination of endogenous IRE1” value [4] of the same compound?
Answer: significant increase in K48-linked ubiquitination of endogenous IRE1
